Values quoted from earlier work, collected in patent EP0975321B1, “THE USE OF THIOGLYCOLIC ACID AS DEPIGMENTING AGENT” (I.V. Pharma S.A.S., priority 1997, dated 1998).

Conditions: Acidic strength; Table 1

Structure (SMILES) | pKa value
O=C(O)CS [Tioglycolic acid, 2-mercaptoacetic acid] | 3.68
O=C(O)C(Cl)(Cl)Cl [Trichloroacetic acid] | 0.70
